Laboratory results reported in US20200003760A1, “IN-VITRO METHODS FOR CLASSIFYING DRUGS ACCORDING TO THEIR POTENTIAL TO CAUSE LIVER CELL INJURY” (Board of Trustees of Michigan State University, priority 2018, published 2020).
Like-named read-outs stand apart in the source and are kept apart here.

Columns and labels:
HepG2 cells = assay: Drug/cytokine-induced cytotoxicity (% LDH release) concentration-response in HepG2 cells; type: cell-based, human; parameters: key to Deltadiff: LDH release percentage points (drug/TNF Delta minus drug/VEH Delta); conditions: for R10 / R10 IFN / R10 TNF / R10 TNF/IFN: 10 percent increase in LDH response above min, 0 when D10 = 0; for R10 / D10 (LDH rise of at least 10 points, yes/no) / Emax / EC10: drug alone (VEH); for R10 IFN: with IFN; for R10 TNF: with TNF; for R10 TNF/IFN / EC10 TNF/IFN: with TNF and IFN; for Deltadiff: Delta of drug/TNF curve minus Delta of drug/VEH curve (LDH percentage); for cytotoxic interaction of drug with TNF: TNF 10 ng/ml; for effect of IFN coexposure on the drug/TNF cytotoxic interaction: TNF and IFN 10 ng/ml each; for cytotoxicity of drug on its own (LDH release): absence of cytokines; for D10 (LDH rise of at least 10 points, yes/no) / Emax: Homo sapiens, HepG2; for TNF change: D10TNF − D10VEH; for EC10: value corresponding to 10% of Delta (max-min); for EC10 TNF: with TNF 10 ng/ml
Protocol: Cells were passed or used for experiments when they reached approximately 80% confluence. Cells were used at passage 6-16.
HepG2 cells were plated at a density of 4×10^4 cells per well in black-walled, 96-well, tissue culture plates and were allowed to attach overnight before being treated with compounds. Drugs were reconstituted in vehicles consisting of sterile water or DMSO (concentration less than 0.5%). Cells were treated with various concentrations of the drug or its vehicle (control) alone or in combination with the cytokines TNF (10 ng/ml) and/or IFN (10 ng/ml) or their PBS vehicle (VEH). Cytotoxicity was evaluated as lactate dehydrogenase (LDH) activity released from the cells into culture medium using the Homogeneous Membrane Integrity Assay kit from Promega (Madison, Wis.).
Concentration-response curves were generated for 24 drugs, 14 of which are associated with human IDILI and 10 of which are not. […] This was necessary because four-parameter logistic modeling used in the statistical analysis requires well defined, sigmoidal concentration-response curves. Cells were exposed to drug/cytokine combinations for 24 hours. For analysis of drug concentration-response data, concentrations of each drug were expressed as a fraction of its Cmax.
Defining covariates: four-parameter logistic model. In the first phase, variables (potential covariates) for use in the classification analysis were defined from the analysis of drug concentration-response data. Initially, a one-way analysis of variance (ANOVA) was used as an omnibus test to determine if a particular treatment (e.g. drug alone or in combination with TNF and/or IFN) caused a significant change in LDH release relative to baseline (i.e., LDH release in the absence of drug, hereafter designated “min”). The criterion for significance for the ANOVA was set at α=0.01. A 1% level of significance was used to rule out more vigorously marginal relationships between concentration and response.
where LDH(x) is the percentage of LDH released at a given concentration x; x=[drug]/Cmax; min=the % LDH release at 0 drug concentration (i.e., baseline); and max=the maximal LDH response (i.e., maximum % LDH release).
where D10 is a categorical variable related to reaching a threshold LDH response above which a drug is classified as positively associated with IDILI. D10 is defined as 0 if Delta<10% LDH release and as 1 if Delta≥10% LDH release.
The base covariate R10 represents the [drug]/Cmax value associated with an increase in 10 LDH percentage points above min for a particular treatment condition and was determined by the equation:
R10 was considered to be 0 when the Delta<10% LDH (i.e. when D10=0).
EC50 quotient, EC10 quotient and R10 quotient represent the ratio between the EC50, EC10 or R10 of the drug/cytokine concentration-response curve and the respective value for the drug/VEH concentration-response curve. In some instances, the value derived from this calculation is indeterminate (i.e. when the denominator=0). In order to incorporate the quotient values into the classification models described below, the categorical variable “Q” was used to eliminate the possibility of the quotient being indeterminate. Q is defined as 0 if Delta VEH and/or Delta cytokine is <10% LDH and 1 if both Delta VEH and Delta cytokine are ≥10% LDH. […] The same condition was applied for calculation of EC10 quotient and R10 quotient.
Deltadiff represents the difference between the Delta of the drug/cytokine concentration-response curve and the Delta of the drug/VEH curve. In other words, Deltadiff=(Delta cytokine)−(Delta VEH). FIG. 1 graphically illustrates several of the covariates defined above. […] In addition to the covariates derived from the concentration-response curves, the maximal therapeutic plasma drug concentration (Cmax) in human patients was used in some models (Table 1).

[1] = Logistic regression classification model: probability that a drug is associated with IDILI; parameters: species or system human; conditions: for Estimated probability: probability that drug is associated with IDILI, covariates Deltadiff, EC50 VEH, EC50 TNF, Delta VEH, Cmax, optimal cutoff 0.46
Text: Classification modeling using defined covariates. In the second phase of analysis, classification models were developed using logistic regression with covariates as independent variables in the analysis and known IDILI classification as the dependent variable. A model selection process was used to determine if a covariate or set of covariates is associated with IDILI liability. Covariates were first evaluated individually to determine how well a particular covariate classified drugs according to IDILI liability, and then covariates were evaluated in combination. Combinations of covariates were selected to maximize the ability of the model to distinguish between drugs associated or not with IDILI. Specifically, covariates that describe changes in efficacy (Delta, Deltadiff, etc.) were paired with covariates that describe changes in potency (EC50, EC10, R10, etc.) to find covariate combinations that led to models that most accurately discriminated between drugs that are and are not associated with IDILI. […] The logistic regression models follow the equation: […]
where ŷi is the calculated (predicted) probability that drug i with a vector of covariates xi is associated with IDILI. The β coefficients (β0, the regression intercept; and βi, the regression slopes for model covariates, xi) were derived from the logistic regression models using 1) combinations of the covariates (xi) generated by concentration-response modeling for each of the 24 drugs evaluated in this study, and 2) the true IDILI classification for the dependent variable yi (i.e., 1 for IDILI+drugs and 0 for IDILI-drugs). […] This occurs when a covariate almost perfectly separates observations into the appropriate categories. […] When separation or quasi-complete separation occurs, use of the standard method (i.e., maximum likelihood estimation) provides biased, unreliable estimates of βi.
Receiver operating characteristic (ROC) analysis. In the third phase of the statistical approach, the classification models, generated as logistic regression models using single covariates or combinations of covariates, were evaluated by ROC analysis to determine which model and corresponding sets of covariates led to the most accurate classification of drugs according to their potential to cause IDILI. An ROC curve was created for each model by graphing the true positive rate (sensitivity; i.e., proportion of drugs correctly classified as associated with IDILI) against the false positive rate (1-specificity; i.e., proportion of drugs incorrectly classified as associated with IDILI) at various probability cutoff thresholds (k). […] An area under the curve (AUC) and confidence interval was computed for each ROC curve (where each logistic regression model has one ROC curve). […] Corresponding to each ROC curve is an optimal threshold value (k*), the threshold yielding the highest point of accuracy on the curve (i.e., the point nearest the point […] on the curve). Thus, each ROC curve has a corresponding AUC and an optimal cutoff (k*) that corresponds to the highest point of accuracy on that ROC curve.

[2] = maximal plasma concentration after pharmacologic dosing in human patients; cited from earlier work
[3] = cited from earlier work; for True classification: IDILI in human patients; for IDILI liability: criteria of Xu et al. (2008)
[4] = categorical, Delta threshold 10 LDH percentage points
[5] = maximal LDH response, 24 h, read-out: max
[6] = value corresponding to 10% of Delta, NA = no significant increase
[7] = categorical, Delta threshold 10 LDH percentage points, read-out: D10

SMILES | Estimated probability [1] | R10 (HepG2 cells) | R10 IFN (HepG2 cells) | R10 TNF (HepG2 cells) | R10 TNF/IFN (HepG2 cells) | Deltadiff (HepG2 cells) | cytotoxic interaction of drug with TNF (HepG2 cells; HepG2, 24 h) | effect of IFN coexposure on the drug/TNF cytotoxic interaction (HepG2 cells; HepG2, 24 h) | cytotoxicity of drug on its own (LDH release) (HepG2 cells; HepG2, 24 h) | D10 (LDH rise of at least 10 points, yes/no) (HepG2 cells; [4]) [%] | Emax (HepG2 cells; [5]) [%] | TNF change (HepG2 cells; categorical) | EC10 (HepG2 cells; NA = no significant increase) | EC10 TNF (HepG2 cells; [6]) | EC10 TNF/IFN (HepG2 cells; [6]) | Cmax [2] [µM] | True classification [3] | IDILI liability [3] | Emax (HepG2 cells; [7]) [%] | further results
COc1cccc2c1C(=O)c1c(O)c3c(c(O)c1C2=O)C[C@@](O)(C(=O)CO)C[C@@H]3O[C@H]1C[C@H](N)[C@H](O)[C@H](C)O1 [Doxorubicin] | 0.8839 | 12.4 [drug]/Cmax | 9.7 [drug]/Cmax | 2.0 [drug]/Cmax | 0.7 [drug]/Cmax | −15.2 | TNF significantly enhanced the cytotoxicity | – | statistically significant increase in LDH release | > 10 | 113 | 0 | 12.0 [drug]/Cmax | 1.7 [drug]/Cmax | 0.6 [drug]/Cmax | 1 | IDILI+ | IDILI+ | – | –
Nc1c(CC(=O)O)cccc1C(=O)c1ccc(Br)cc1 [Bromfenac] | 0.9397 | 0 [drug]/Cmax | 0 [drug]/Cmax | 40.6 [drug]/Cmax | 28.9 [drug]/Cmax | 22.6 | synergized with TNF to cause cytotoxicity | coexposure to IFN enhanced the cytotoxic interaction | caused no cytotoxicity on their own | – | 13.8 | 1 | – | 22.6 [drug]/Cmax | 18.9 [drug]/Cmax | 13.5 | IDILI+ | IDILI+ | < 10 | –
CC(=O)Oc1ccccc1C(=O)O [Aspirin] | 0.1445 | 0 [drug]/Cmax | 0 [drug]/Cmax | 0 [drug]/Cmax | 0 [drug]/Cmax | 0 | – | – | – | – | 11 | 0 | – | – | – | 47 | IDILI− | IDILI− | < 10 | –

Now from value to molecule, other results behind:

Estimated probability [1] | SMILES | R10 (HepG2 cells) | R10 IFN (HepG2 cells) | R10 TNF (HepG2 cells) | R10 TNF/IFN (HepG2 cells) | Deltadiff (HepG2 cells) | cytotoxic interaction of drug with TNF (HepG2 cells; HepG2, 24 h) | effect of IFN coexposure on the drug/TNF cytotoxic interaction (HepG2 cells; HepG2, 24 h) | cytotoxicity of drug on its own (LDH release) (HepG2 cells; HepG2, 24 h) | D10 (LDH rise of at least 10 points, yes/no) (HepG2 cells; [4]) [%] | Emax (HepG2 cells; [5]) [%] | TNF change (HepG2 cells; categorical) | EC10 (HepG2 cells; NA = no significant increase) | EC10 TNF (HepG2 cells; [6]) | EC10 TNF/IFN (HepG2 cells; [6]) | Cmax [2] [µM] | True classification [3] | IDILI liability [3] | Emax (HepG2 cells; [7]) [%] | further results
0.7562 | NNC(=O)c1ccncc1 [Isoniazid] | 440.9 [drug]/Cmax | 434.0 [drug]/Cmax | 268.1 [drug]/Cmax | 208.7 [drug]/Cmax | 38.8 | TNF significantly enhanced the cytotoxicity | coexposure to IFN enhanced the cytotoxic interaction | statistically significant increase in LDH release | > 10 | 57.7 | 0 | 427.0 [drug]/Cmax | 248.0 [drug]/Cmax | 169.7 [drug]/Cmax | 77 | IDILI+ | IDILI+ | – | EC10 IFN (HepG2 cells; value corresponding to 10% of Delta, with IFN 10 ng/ml, NA = no significant increase): 420.5 [drug]/Cmax
0.1275 | CC(CN1c2ccccc2Sc2ccccc21)N(C)C (centres unmarked) [Promethazine] | 0 [drug]/Cmax | 0 [drug]/Cmax | 0 [drug]/Cmax | 0 [drug]/Cmax | 0 | – | – | – | – | 17 | 0 | – | – | – | 0.06 | IDILI− | IDILI− | < 10 | –
0.1545 | Cc1onc(-c2c(F)cccc2Cl)c1C(=O)N[C@@H]1C(=O)N2[C@@H]1SC(C)(C)[C@@H]2C(=O)O [Flucloxacillin] | 0 [drug]/Cmax | 0 [drug]/Cmax | 0 [drug]/Cmax | 0 [drug]/Cmax | 0 | no statistically significant increase in LDH | – | no statistically significant increase in LDH | – | 17.9 | 0 | – | – | – | 72.6 | IDILI+ | IDILI+ | < 10 | synergy with cytokines to kill HepG2 cells (HepG2 cells; HepG2, 24 h, TNF and/or IFN): did not synergize with cytokines to kill HepG2 cells; calculated probability for association with IDILI ([1]; best-performing classification model): 0.154; classification by the best-performing model ([1]; optimal cutoff): incorrectly classified as not associated with IDILI; pattern of liver injury in humans ([3]; human patients): cholestatic rather than hepatocellular
